Results reported in ChEMBL document CHEMBL4828709, “Discovery of 2,4-pyrimidinediamine derivatives as potent dual inhibitors of ALK and HDAC” (Eur J Med Chem, 2021).
The source made the active and inactive calls. The calls are words filed in the database; no cut-off is given here.

Assays:
[1] = biological target: T1, ALK tyrosine kinase receptor (Homo sapiens, UniProt Q9UM73); test: Inhibition of human ALK in human SH-SY5Y cells assessed as inhibition of Akt phosphorylation at Ser473 residue measured after 24 hrs by Western blot assay; format: cell-based; details: dose 1-4 µM
[2] = MRT (0 to infinity) in Sprague-Dawley rat at 1 mg/kg, iv measured for 12 hrs by LC-MS/MS analysis; format: ADME, organism-based; details: in vivo
SH-SY5Y = test: Induction of apoptosis in human SH-SY5Y cells assessed as late apoptotic cells at 2 uM measured after 24 hrs by Annexin V-FITC/PI staining based flowcytometry (reference value: 14.32%); format: functional
MDA-MB-231 [3] = test: Cell cycle arrest in human MDA-MB-231 cells assessed as accumulation of cells at G1 phase at 2 uM measured after 24 hrs by PI staining based flowcytometry method (reference value: 55.32%); format: functional
MDA-MB-231 [4] = test: Induction of apoptosis in human MDA-MB-231 cells assessed as early apoptotic cells at 4 uM measured after 24 hrs by Annexin V-FITC/PI staining based flowcytometry (reference value: 0.64%); format: functional
MDA-MB-231 [5] = test: Cell cycle arrest in human MDA-MB-231 cells assessed as accumulation of cells at S phase at 4 uM measured after 24 hrs by PI staining based flowcytometry method (reference value: 20.81%); format: functional
[6] = biological target: T1, ALK tyrosine kinase receptor; test: Inhibition of human ALK in human SH-SY5Y cells assessed as inhibition of ALK phosphorylation at Tyr1278 residue at 4 uM measured after 24 hrs by Western blot assay; format: cell-based
NCI-H2228 = test: Potency index, ratio of crizotinib IC50 to test compound IC50 for human NCI-H2228 cells harboring EML4/ALK […] assessed as inhibition of cell proliferation measured after 72 hrs by CCK8 assay; format: functional
Histone deacetylase 1 = Histone deacetylase 1 (Homo sapiens, UniProt Q13547); test: biochemical
Description: Inhibition of recombinant human C-terminal His/FLAG-tagged HDAC1 (1 to 482 residues) expressed in Sf9 insect cells using Ac-peptide-AMC as substrate preincubated for 15 mins followed by addition of substrate and trypsin measured by flourescence assay

MDA-MB-231 [7] = test: Antimigratory activity against human MDA-MB-231 cells assessed as wound closure at 0.4 uM measured after 48 hrs by cell scratch assay (reference value: 30.3%); format: functional
MDA-MB-231 [8] = test: Cell cycle arrest in human MDA-MB-231 cells assessed as accumulation of cells at S phase at 1 uM measured after 24 hrs by PI staining based flowcytometry method (reference value: 20.81%); format: functional

T1 sequence (Q9UM73 19-1620 limits assumed): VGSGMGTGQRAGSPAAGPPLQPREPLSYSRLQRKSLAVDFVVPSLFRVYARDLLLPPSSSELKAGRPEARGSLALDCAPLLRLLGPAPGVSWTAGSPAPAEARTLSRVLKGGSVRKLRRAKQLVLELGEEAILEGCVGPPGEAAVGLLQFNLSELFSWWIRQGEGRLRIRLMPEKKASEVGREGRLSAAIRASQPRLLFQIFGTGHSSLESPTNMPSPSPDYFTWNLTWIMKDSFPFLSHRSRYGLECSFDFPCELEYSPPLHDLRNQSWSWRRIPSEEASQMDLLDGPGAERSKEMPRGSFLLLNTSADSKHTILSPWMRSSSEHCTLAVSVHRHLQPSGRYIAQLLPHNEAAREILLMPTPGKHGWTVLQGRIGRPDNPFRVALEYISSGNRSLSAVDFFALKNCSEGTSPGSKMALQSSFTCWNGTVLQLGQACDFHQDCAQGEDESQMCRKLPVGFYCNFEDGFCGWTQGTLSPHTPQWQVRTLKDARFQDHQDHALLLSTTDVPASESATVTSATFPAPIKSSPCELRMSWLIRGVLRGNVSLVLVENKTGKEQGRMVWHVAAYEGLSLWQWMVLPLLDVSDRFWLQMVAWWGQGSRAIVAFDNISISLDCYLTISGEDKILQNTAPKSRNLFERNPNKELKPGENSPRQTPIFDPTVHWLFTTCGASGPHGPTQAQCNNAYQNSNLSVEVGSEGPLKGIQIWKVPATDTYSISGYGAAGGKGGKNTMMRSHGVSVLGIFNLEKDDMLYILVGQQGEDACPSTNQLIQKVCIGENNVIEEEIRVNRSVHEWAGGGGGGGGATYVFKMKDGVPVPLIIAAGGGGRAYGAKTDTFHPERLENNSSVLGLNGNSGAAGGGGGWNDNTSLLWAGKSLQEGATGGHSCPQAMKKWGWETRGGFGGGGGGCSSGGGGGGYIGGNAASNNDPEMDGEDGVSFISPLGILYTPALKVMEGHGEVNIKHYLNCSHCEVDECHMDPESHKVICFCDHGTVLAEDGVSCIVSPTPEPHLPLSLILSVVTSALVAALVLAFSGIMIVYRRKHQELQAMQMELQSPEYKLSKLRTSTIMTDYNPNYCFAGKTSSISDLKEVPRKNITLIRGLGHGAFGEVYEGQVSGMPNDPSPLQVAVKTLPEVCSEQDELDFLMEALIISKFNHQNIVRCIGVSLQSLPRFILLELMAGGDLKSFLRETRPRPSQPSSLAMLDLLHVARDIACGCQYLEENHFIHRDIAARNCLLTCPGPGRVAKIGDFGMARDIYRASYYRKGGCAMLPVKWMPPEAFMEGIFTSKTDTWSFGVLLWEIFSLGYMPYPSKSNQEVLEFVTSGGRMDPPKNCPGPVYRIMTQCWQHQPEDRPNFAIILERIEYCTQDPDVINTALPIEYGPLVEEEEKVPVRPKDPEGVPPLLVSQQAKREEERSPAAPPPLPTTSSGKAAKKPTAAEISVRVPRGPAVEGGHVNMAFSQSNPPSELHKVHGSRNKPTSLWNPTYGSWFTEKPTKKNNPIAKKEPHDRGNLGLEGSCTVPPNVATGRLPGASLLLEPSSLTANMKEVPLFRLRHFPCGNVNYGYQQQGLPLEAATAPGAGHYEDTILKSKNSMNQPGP
Histone deacetylase 1, sequence (Q13547 whole entry): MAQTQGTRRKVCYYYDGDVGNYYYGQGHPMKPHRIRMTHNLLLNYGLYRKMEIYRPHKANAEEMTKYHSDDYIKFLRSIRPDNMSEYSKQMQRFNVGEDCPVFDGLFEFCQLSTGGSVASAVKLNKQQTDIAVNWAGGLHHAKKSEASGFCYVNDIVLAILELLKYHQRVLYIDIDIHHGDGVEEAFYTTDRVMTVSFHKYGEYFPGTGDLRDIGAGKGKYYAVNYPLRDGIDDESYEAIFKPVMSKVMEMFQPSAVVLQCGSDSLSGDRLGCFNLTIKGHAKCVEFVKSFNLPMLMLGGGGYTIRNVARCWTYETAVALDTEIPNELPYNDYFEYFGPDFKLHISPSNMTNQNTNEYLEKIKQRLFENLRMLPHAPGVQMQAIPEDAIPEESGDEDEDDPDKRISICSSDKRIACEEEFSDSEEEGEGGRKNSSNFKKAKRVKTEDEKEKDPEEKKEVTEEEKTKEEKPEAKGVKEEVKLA

inhibition [1]: Dose-Dependent Effect | MRT [2]: 7.8 min | inhibition [6]: Active | IC50 (Histone deacetylase 1): 7.9 nM
Compound: CC(C)S(=O)(=O)c1ccccc1Nc1nc(Nc2ccc(NC(=O)CCCCCCC(=O)NO)cc2)ncc1Cl
Activity (SH-SY5Y): 28.89% | Activity (MDA-MB-231 [3]): 32.53% | Activity (MDA-MB-231 [4]): 4.42% | Activity (MDA-MB-231 [5]): 14.37% | Ratio IC50 (NCI-H2228): 3 | Activity (MDA-MB-231 [7]): 3.7% | Activity (MDA-MB-231 [8]): 32.42%
